Columns and labels:
HES2-CMs = test: Cytosolic Ca2+ transients (Fura-2/AM spectrofluorometry) in HES2-CMs; format: cell-based, human
Experimental: Briefly, HES2 cells were grown on mitomycin C- (Sigma; St Louis, Mo., USA) inactivated mouse embryonic fibroblasts (mEFs). Culture medium consisted of DMEM (Invitrogen, Carlsbad, Calif.) containing 2 mM L-glutamine, insulin-transferrin-selenium, non-essential amino acids, 90 μM β-mercaptoethanol, and 20% FBS (Hyclone, Logan, Utah). HES2 cells were passaged manually (“cut-and-paste”), by cutting colony into pieces and removing them from the mEFs using dispase (8 mg/mL, Invitrogen, Carlsbad, Calif.). For cardiac differentiation, HES2 cells were removed from the mEFs, resuspended and broken into pieces, followed by co-culturing with the immortalized endoderm-like END2 cells at 100% confluence (6).
(§1) For isolating hESC-CMs, beating outgrowths were microsurgically dissected from H1- (7+11 to 17 or 18-24 days) and HES2- (18-24 days) derived EBs by a glass knife, (4) followed by incubation in collagenase II (1 mg/mL) at 37° C. for 30 min. The isolated cells were incubated with KB solution containing (mM): 85 KCl, 30 K2HPO4, 5 MgSO4, 1 EGTA, 2 Na2-ATP, 5 pyruvic acid, 5 creatine, 20 taurine, 20 d-glucose, at room temperature for 30 min. After the cells were plated on laminin-coated glass coverslips for 1 hr at 37° C., regular culture media was added. […] Calcium recordings from cell clusters containing 10-15 cells were performed within 48 hrs after plating.
(§2) A spectrofluorometric method with Fura-2/AM as the Ca^2+ indicator was used for measuring [Ca^2+]i. FLV- or hESC-CMs were incubated with 5 μM Fura-2/AM and 0.2% pluronic F-127 for 30 min at 37° C. Fluorescent signals obtained upon excitation at 340 nm (F340) and 380 nm (F380) were recorded from cells perfused with Tyrode solution containing (mM): 140 NaCl, 5.0 KCl, 1.0 CaCl2, 1.0 MaCl2, 10.0 glucose and 10 HEPES (pH 7.4) unless otherwise indicated. Data were analyzed using the Ionwizard software (Version 5, IonOptix) to generate the Ca transient parameters reported in this study. The F340/F380 ratio was used to represent cytosolic [Ca^2+]i. To induce cytoplasmic Ca^2+ transients, CMs were stimulated by electrically pulsing from 0.1 to 0.5 Hz or by caffeine application as indicated. For electrical stimulations, Ca^2+ transients were recorded and analyzed after a series of depolarizations that enabled each transient to fully decay so as to establish a steady-state SR content.

H1-CMs [1] = test: Cytosolic Ca2+ transients (Fura-2/AM spectrofluorometry) in H1-CMs; format: cell-based, human
Experimental: H1 cells were grown on irradiated mEFs from 13.5-day embryos of CF-1 mice and propagated as previously described (3). The culture medium consisted of 80% Dulbecco's modified Eagle's medium, 20% knockout serum replacement, 4 ng/ml basic fibroblast growth factor, 1 mmol/L glutamine, 0.1 mmol/L β-mercaptoethanol, and 1% nonessential amino acid solution (all from Gibco-BRL, Gaithersburg, Md.). To induce the formation of embryoid bodies (EBs), hESCs were detached using 1 mg/mL type IV collagenase (Gibco-BRL) and transferred to Petri dishes containing 80% Dulbecco's modified Eagle's medium, 20% fetal bovine serum defined (HyClone, Logan, Utah), 1 mmol/L glutamine, and 1% nonessential amino acid stock in the absence of β-FGF. The aggregates were cultured in suspension for 7 days, followed by plating on gelatin-coated (0.1%; Sigma-Aldrich, St. Louis) 6-well plates to form hESC-CMs.
as §1, §2

FLV-CMs = test: Cytosolic Ca2+ transients (Fura-2/AM spectrofluorometry) in human fetal left ventricular CMs; format: cell-based; details: caffeine 10 mM, brief exposure, no Ca2+ in extracellular bath
Text: Human FLV-CMs and adult-CMs were isolated and experimented according to protocols approved by the UC Davis IUPAC and IRB (Protocol #200614787-1 and # 200614594-1). Briefly, fetal human hearts (16-18 weeks, Advanced Bioscience Resources, INC. Alameda, Calif.) and adult human hearts (18+ years, National Disease Research Interchange, Philadelphia, Pa.) were perfused with enzymatic solutions using a customized Langendorff apparatus as previously described (19). […]
as §2, with “FLV- or hESC-CMs were incubated with 5 μM Fura-2/AM and 0.2% pluronic F-127 for 30 min at 37° C.” left out, “The F340/F380 ratio was used to represent cytosolic [Ca^2+]i. To induce cytoplasmic Ca^2+ transients, CMs were stimulated by electrically pulsing from 0.1 to 0.5 Hz or by caffeine application as indicated.” left out

hESC-CMs = test: Cytosolic Ca2+ transients (Fura-2/AM), HES2- and H1-CMs taken together; format: cell-based, human; details: for Effect on Vmax, upstroke of electrically evoked Ca2+ transients: 10 μM ryanodine, 30 min
Experimental: as §1, §2

H1-CMs [2] = test: Cytosolic Ca2+ transients (Fura-2/AM) in adenovirus-transduced H1-CMs; format: cell-based, human; details: for Electrically evoked Ca2+ transient amplitude after ryanodine / Upstroke velocity of Ca2+ transients after ryanodine: 10 μM ryanodine, 30 minutes
Text: Human cardiac calsequestrin 2 (sc119365, Origene technologies, MD) was cloned and ligated into adenovirus shuttle vectors pAdCMV-IRES-GFP using primers creating Bmt and Spe I sites (pAdCMV-CSQ-IRES-GFP). IRES, internal ribosomal entry site, allows the simultaneous translation of CSQ and the fluorescence marker (GFP) with a single transcript. The truncated CSQ mutant was constructed in pAdCMV-IRES-GFP by deleting 817 bp (53 bp-869 bp) using the two EcoN I sites inside CSQ's coding sequence (Ad-CSQΔ). The resulting product after Hind III cutting was self-ligated to produce another control of pAdCMV-GFP (Ad-GFP). Adenoviruses were generated by Cre-lox recombination of purified ψ5 viral DNA and shuttle vector DNA using Cre4 cells as described previously (56).
For isolating H1-CMs, beating outgrowths were microsurgically dissected from H1- derived EBs (7+14 to 7+21 days) by a glass knife, followed by incubation in collagenase II (1 mg/mL) at 37° C. for 30 min. The isolated cells were incubated with KB solution containing (mM): 85 KCl, 30 K2HPO4, 5 MgSO4, 1 EGTA, 2 Na2-ATP, 5 pyruvic acid, 5 creatine, 20 taurine, 20 d-glucose, at room temperature for 30 min. After the cells were plated on gelatin-coated glass coverslips for 1 hr at 37° C., regular culture media was added. After 48 hours, plated H1-CMs were infected with adenoviruses for 3 hours. Recordings were performed within 24-48 hrs after infection.
A spectrofluorometric method with Fura-2/AM as the Ca^2+ indicator was used for measuring [Ca^2+]i. H1-CMs were incubated with 10 μM Fura-2/AM and 0.2% pluronic F-127 for 30 min at 37° C. Fluorescent signals obtained upon excitation at 340 nm (F340) and 380 nm (F380) were recorded from cells perfused with Tyrode solution containing (mM): 140 NaCl, 5.0 KCl, 1.0 CaCl2, 1.0 MaCl2, 10.0 glucose and 10 HEPES (pH 7.4) unless otherwise indicated. Data were analyzed using the Ionwizard software (Version 5, IonOptix) to generate the Ca^2+ transient parameters reported in this study. The F340/F380 ratio was used to represent cytosolic [Ca^2+]i. To induce cytoplasmic Ca^2+ transients, CMs were stimulated by electrically pulsing from 0.1 to 0.5 Hz or by caffeine application as indicated.
For electrical stimulations, Ca^2+ transients were recorded and analyzed after a series of depolarizations that enabled each transient to fully decay so as to establish a steady-state SR content.

In the case of Cn1c(=O)c2c(ncn2C)n(C)c1=O [caffeine], the “Percentage of cells with caffeine-induced Ca2+ transients (caffeine-responsive cells)” value (HES2-CMs; caffeine 10 mM, brief exposure, no Ca2+ in extracellular bath, HES2-CMs) is reported as 40%, the “Percentage of cells with caffeine-induced Ca2+ transients (caffeine-responsive cells)” value (H1-CMs [1]; caffeine 10 mM, brief exposure, no Ca2+ in extracellular bath, H1-CMs) is reported as 35% and the “Percentage of cells with caffeine-induced rise in cytosolic Ca2+ (caffeine-responsive cells)” value (FLV-CMs) is reported as 65%. The “Percentage of cells with caffeine-induced large Ca2+ transients” value (hESC-CMs; hESC-CMs (HES2- and H1-CMs pooled)) was roughly 38% and the “Cytosolic Ca2+ response to caffeine” value (H1-CMs [2]; caffeine 10 mM, brief exposure, transduced H1-CMs) was “robust cytosolic Ca^2+ increase”.

With C/C=C(/C)C(=O)O[C@H]1C(C)=C2[C@H]([C@@H]1OC(=O)CCCCCCC)[C@@](C)(OC(C)=O)C[C@H](OC(=O)CCC)[C@@]1(O)[C@H]2OC(=O)[C@@]1(C)O [thapsigargin] the “Effect on Vmax, decay of electrically evoked Ca2+ transients” value (HES2-CMs; thapsigargin 0.5 μM, 15 min, HES2-CMs) was “significantly slowed”, the “Effect on electrically evoked Ca2+ transient amplitude” value (HES2-CMs; thapsigargin 0.5 μM, 15 min, caffeine-responsive HES2-CMs) was “significantly reduced” and the “Effect on Vmax, decay of electrically evoked Ca2+ transients” value (H1-CMs [1]; thapsigargin 0.5 μM, 15 min, H1-CMs) was “significantly slowed”. The “Effect on electrically evoked Ca2+ transient amplitude” value (H1-CMs [1]; thapsigargin 0.5 μM, 15 min, caffeine-responsive H1-CMs) was “significantly reduced”, the “Decay velocity of Ca2+ transients after thapsigargin” value (“Decay velocity of Ca2+ transients” for short) (H1-CMs [2]; thapsigargin (0.5 μM), 15 min, H1-CMs transduced with Ad-CSQ) was 61% and the “Decay velocity of Ca2+ transients” value (H1-CMs [2]; thapsigargin (0.5 μM), 15 min, H1-CMs transduced with Ad-CSQΔ) was 65%. For the same compound, the “Decay velocity of Ca2+ transients” value (H1-CMs [2]; thapsigargin (0.5 μM), 15 min, H1-CMs transduced with Ad-GFP) was 69% and the “Ca2+ transient amplitude after thapsigargin” value (H1-CMs [2]; thapsigargin (0.5 μM), 15 min, transduced H1-CMs (all three groups)) was “unchanged”.

ryanodine was tested, and the “Effect on electrically evoked Ca2+ transient amplitude” value (HES2-CMs; 10 μM ryanodine, 30 min, caffeine-insensitive HES2-CMs) was “not affected”, the “Reduction of electrically evoked Ca2+ transient amplitude” value (HES2-CMs; 10 μM ryanodine, 30 min, caffeine-responsive HES2-CMs) was 37±4.8% and the “Effect on electrically evoked Ca2+ transient amplitude” value (H1-CMs [1]; 10 μM ryanodine, 30 min, caffeine-insensitive H1-CMs) was “not affected”. For the same compound, the “Reduction of electrically evoked Ca2+ transient amplitude” value (H1-CMs [1]; 10 μM ryanodine, 30 min, caffeine-responsive H1-CMs) was 18±4.3%, the “Effect on Vmax, upstroke of electrically evoked Ca2+ transients” value (hESC-CMs; caffeine-insensitive cells) was “not” and the “Effect on Vmax, upstroke of electrically evoked Ca2+ transients” value (hESC-CMs; caffeine-responsive cells) was “significantly slowed”. For the same compound, the “Electrically evoked Ca2+ transient amplitude after ryanodine” value (H1-CMs [2]; H1-CMs transduced with Ad-CSQ) was 78%, the “Upstroke velocity of Ca2+ transients after ryanodine” value (“Upstroke velocity of Ca2+ transients” below) (H1-CMs [2]; H1-CMs transduced with Ad-CSQ) was 67% and the “Electrically evoked Ca2+ transient amplitude after ryanodine” value (H1-CMs [2]; H1-CMs transduced with Ad-CSQΔ) was 84%. The “Upstroke velocity of Ca2+ transients” value (H1-CMs [2]; H1-CMs transduced with Ad-CSQΔ) was 62%, the “Electrically evoked Ca2+ transient amplitude after ryanodine” value (H1-CMs [2]; H1-CMs transduced with Ad-GFP) was 80% and the “Upstroke velocity of Ca2+ transients” value (H1-CMs [2]; H1-CMs transduced with Ad-GFP) was 64%.

— patent US9045731B2, “Compositions and methods for improving the functional efficacy of stem cell-derived cardiomyocytes” (The Regents of the University of California, priority 2007, dated 2015)
